The values below come from paper PMC4979471 (Cell Death Discovery, 2015).

What all share (assay): Kinase selectivity, P33-radiolabeled assay
Type in all cases: biochemical
Holding throughout (conditions): 10 μM ATP

The target of assay [1] is T1, MLK1/MAP3K9 (Homo sapiens, UniProt P80192).
T1 construct: purchased Reaction Biology Corp
The procedure, abridged:
(§1)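 Activity relative to DMSO controls (%) was measured for compound at 10 μM. Assays ran at 10 μM ATP, in duplicate.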

Assay [2] deals with T2, ULK2 (Homo sapiens, UniProt Q8IYT8).
T2 construct: purchased Reaction Biology Corp
T2 sequence (Q8IYT8 1-1036): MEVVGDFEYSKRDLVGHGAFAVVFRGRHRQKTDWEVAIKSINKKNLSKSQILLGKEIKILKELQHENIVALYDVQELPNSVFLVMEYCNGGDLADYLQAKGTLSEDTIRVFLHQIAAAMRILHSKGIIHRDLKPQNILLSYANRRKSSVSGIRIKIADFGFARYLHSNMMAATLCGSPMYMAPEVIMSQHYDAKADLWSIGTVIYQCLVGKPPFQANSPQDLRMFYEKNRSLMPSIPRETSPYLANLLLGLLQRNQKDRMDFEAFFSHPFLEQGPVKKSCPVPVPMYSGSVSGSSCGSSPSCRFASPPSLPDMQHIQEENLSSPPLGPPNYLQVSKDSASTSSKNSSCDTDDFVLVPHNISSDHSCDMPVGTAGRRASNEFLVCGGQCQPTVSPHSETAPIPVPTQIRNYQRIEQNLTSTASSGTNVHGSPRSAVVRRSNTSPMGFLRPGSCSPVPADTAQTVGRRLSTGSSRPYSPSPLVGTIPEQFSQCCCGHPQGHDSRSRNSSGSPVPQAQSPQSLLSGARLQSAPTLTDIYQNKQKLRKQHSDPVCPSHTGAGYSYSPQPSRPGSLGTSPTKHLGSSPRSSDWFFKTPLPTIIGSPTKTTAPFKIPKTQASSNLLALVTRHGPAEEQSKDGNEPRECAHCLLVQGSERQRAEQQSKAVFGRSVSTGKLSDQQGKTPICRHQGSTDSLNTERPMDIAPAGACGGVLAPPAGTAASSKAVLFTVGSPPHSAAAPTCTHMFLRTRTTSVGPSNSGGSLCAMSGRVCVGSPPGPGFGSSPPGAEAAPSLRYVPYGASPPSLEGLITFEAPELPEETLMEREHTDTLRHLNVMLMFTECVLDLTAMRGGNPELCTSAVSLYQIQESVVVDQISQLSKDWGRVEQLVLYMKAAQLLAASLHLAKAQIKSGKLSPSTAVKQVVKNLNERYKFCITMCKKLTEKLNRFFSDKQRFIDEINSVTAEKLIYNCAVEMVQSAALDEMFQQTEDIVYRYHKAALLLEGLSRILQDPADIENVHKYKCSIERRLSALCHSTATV
The procedure, abridged: as §1

For assay [3], the target named is T3, KHS/MAP4K5 (Homo sapiens, UniProt Q9Y4K4).
T3 construct: purchased Reaction Biology Corp
T3 sequence (Q9Y4K4 whole entry): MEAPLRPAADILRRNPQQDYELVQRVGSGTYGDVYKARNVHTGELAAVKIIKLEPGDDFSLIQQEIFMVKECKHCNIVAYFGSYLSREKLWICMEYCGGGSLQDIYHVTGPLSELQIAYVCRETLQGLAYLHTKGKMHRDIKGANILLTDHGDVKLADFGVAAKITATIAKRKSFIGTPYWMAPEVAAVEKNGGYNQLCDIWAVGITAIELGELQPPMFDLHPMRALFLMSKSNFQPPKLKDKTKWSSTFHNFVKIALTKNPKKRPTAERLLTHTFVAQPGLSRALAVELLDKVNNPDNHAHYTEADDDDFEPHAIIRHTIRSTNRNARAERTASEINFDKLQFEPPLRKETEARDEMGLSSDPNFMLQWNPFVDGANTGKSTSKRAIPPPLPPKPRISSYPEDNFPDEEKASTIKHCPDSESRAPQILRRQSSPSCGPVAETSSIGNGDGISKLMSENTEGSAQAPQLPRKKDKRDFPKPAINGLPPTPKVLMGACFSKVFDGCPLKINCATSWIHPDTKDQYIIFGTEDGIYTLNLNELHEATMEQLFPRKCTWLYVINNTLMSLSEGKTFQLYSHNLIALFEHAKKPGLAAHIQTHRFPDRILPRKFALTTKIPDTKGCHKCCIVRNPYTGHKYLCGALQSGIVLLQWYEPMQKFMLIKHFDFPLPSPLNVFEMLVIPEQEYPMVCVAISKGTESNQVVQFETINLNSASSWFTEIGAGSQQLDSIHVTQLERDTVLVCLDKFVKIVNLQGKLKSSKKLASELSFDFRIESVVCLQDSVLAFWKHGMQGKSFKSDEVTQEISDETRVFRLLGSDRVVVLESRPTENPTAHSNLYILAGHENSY
The procedure, abridged: as §1

Assay [4] addresses T4, SRPK1 (Homo sapiens, UniProt Q96SB4).
T4 construct: purchased Reaction Biology Corp
The procedure, abridged: as §1

The target of assay [5] is T5, DAPK2 (Homo sapiens, UniProt Q9UIK4).
T5 construct: purchased Reaction Biology Corp
T5 sequence (Q9UIK4 whole entry): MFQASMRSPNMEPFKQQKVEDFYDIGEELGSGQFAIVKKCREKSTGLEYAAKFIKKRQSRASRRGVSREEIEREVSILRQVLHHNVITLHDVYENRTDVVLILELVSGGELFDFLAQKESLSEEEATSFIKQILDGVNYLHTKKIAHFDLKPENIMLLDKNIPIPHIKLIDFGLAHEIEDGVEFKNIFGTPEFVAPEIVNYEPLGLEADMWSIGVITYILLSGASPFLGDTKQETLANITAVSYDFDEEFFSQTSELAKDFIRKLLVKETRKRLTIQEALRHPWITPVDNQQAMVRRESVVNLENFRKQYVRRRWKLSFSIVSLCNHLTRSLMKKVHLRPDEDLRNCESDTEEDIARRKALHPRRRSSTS
The procedure, abridged:
as §1

Assay [6] concerns the target T6, DYRK2 (Homo sapiens, UniProt Q92630).
T6 construct: purchased Reaction Biology Corp
T6 sequence (Q92630 1-601): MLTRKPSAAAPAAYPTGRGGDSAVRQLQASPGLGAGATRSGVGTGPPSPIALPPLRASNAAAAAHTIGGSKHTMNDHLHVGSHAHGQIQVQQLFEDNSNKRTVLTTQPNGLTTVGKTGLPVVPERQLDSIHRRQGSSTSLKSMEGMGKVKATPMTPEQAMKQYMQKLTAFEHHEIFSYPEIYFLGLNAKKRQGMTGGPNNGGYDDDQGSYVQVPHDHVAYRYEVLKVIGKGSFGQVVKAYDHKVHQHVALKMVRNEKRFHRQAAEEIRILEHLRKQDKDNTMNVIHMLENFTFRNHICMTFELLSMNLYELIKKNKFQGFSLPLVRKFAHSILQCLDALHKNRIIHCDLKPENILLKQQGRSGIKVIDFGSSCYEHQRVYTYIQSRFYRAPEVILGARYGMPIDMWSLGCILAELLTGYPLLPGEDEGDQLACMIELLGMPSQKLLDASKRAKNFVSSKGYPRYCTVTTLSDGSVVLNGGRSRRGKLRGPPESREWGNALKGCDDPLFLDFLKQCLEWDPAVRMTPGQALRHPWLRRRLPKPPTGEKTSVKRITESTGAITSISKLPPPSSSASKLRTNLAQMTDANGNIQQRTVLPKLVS
The procedure, abridged:
as §1

The target of assay [7] is T7, IKKe/IKBKE (Homo sapiens, UniProt Q14164).
T7 construct: purchased Reaction Biology Corp
T7 sequence (Q14164 1-716): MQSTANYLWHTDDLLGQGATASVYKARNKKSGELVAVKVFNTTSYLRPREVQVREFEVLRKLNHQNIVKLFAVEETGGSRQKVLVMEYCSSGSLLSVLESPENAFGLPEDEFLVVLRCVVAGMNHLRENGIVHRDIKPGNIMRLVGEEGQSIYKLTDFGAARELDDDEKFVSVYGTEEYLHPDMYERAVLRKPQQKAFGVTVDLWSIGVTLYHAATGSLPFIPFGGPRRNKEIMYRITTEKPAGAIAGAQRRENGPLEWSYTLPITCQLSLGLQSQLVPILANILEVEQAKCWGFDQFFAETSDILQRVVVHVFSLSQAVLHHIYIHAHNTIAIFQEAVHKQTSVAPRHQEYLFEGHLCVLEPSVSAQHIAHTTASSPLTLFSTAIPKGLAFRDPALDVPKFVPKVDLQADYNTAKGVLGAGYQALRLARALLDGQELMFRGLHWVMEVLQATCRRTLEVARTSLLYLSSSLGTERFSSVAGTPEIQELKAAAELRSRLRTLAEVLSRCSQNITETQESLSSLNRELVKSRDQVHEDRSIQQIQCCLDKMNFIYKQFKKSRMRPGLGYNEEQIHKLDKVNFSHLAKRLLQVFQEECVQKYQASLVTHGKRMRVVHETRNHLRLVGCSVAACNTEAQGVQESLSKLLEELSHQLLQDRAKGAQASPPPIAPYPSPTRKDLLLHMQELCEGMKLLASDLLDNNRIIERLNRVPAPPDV
The procedure, abridged:
as §1

[8] abbreviates: read-out: % Enzyme Activity (relative to DMSO controls) AVG.
The mark [9] stands for this setting: read-out: % Enzyme Activity (relative to DMSO controls) Data 1.
The mark [10] stands for this setting: read-out: % Enzyme Activity (relative to DMSO controls) Data 2.

Like-named read-outs stand apart in the source and are kept apart here.

T4 sequence (Q96SB4 whole entry): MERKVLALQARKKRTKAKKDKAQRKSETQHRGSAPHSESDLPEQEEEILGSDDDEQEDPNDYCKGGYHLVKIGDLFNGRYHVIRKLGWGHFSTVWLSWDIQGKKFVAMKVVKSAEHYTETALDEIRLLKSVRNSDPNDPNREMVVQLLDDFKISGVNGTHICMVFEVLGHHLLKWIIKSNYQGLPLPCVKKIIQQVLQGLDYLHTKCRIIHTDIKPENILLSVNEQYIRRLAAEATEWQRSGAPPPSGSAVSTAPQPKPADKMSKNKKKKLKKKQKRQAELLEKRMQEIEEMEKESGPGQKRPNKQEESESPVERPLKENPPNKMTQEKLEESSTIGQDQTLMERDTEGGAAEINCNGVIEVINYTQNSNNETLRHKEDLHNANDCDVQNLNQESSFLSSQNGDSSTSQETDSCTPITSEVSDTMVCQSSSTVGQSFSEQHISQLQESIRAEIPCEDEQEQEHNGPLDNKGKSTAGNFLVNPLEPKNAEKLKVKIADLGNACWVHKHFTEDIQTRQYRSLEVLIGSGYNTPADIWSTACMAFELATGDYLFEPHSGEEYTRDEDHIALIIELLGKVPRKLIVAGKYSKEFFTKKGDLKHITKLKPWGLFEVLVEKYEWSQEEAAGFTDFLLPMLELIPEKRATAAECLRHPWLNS
T1 sequence (P80192 whole entry): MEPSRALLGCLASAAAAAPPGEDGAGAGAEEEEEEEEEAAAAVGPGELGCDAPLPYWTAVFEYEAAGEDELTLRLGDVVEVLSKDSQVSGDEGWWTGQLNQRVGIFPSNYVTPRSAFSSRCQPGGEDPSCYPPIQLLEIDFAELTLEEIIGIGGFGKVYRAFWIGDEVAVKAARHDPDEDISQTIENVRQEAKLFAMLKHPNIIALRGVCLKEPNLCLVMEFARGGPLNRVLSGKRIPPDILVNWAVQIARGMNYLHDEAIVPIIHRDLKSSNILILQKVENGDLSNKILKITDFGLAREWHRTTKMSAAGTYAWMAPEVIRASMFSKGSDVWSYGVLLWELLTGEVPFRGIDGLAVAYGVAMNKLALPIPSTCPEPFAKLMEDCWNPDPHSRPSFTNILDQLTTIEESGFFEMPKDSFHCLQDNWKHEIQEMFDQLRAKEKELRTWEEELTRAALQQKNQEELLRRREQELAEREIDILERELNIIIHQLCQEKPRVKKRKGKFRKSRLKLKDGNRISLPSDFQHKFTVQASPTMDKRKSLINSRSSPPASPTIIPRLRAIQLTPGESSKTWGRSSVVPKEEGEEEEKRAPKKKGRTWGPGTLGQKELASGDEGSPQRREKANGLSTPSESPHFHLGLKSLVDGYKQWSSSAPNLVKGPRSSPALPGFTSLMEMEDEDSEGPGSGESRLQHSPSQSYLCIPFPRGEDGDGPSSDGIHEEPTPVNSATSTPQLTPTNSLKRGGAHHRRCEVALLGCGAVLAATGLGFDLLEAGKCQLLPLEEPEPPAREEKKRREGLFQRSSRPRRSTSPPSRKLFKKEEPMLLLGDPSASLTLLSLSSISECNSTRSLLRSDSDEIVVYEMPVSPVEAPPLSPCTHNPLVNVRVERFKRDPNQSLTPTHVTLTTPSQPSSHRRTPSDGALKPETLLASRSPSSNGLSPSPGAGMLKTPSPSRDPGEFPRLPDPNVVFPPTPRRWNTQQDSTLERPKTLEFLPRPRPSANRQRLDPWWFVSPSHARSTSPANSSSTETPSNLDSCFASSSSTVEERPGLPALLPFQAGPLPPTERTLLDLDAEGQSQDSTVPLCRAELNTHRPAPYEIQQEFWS

Turning to `CC(C)(C)C(=O)N1N=CC[C@H]1c1ccccc1` [GSK′963], the remaining activity at 10 µM amounted to 110% in assay [1] (setting [8]); 108% in assay [1] (setting [9]); 112% in assay [1] (setting [10]); 99.7% in assay [2] (setting [8]); 99.8% in assay [2] (setting [9]); 99.5% in assay [2] (setting [10]). Moreover, the remaining activity at 10 µM came out at 93.8% in assay [3] (setting [8]); 91.7% in assay [3] (setting [9]); 96% in assay [3] (setting [10]); 97.7% in assay [4] (setting [8]); 93.2% in assay [4] (setting [9]); 102% in assay [4] (setting [10]). For the same compound, the remaining activity at 10 µM in assay [5] (setting [8]) was 105%; in assay [5] (setting [9]), 104%; in assay [5] (setting [10]) it was 105%; in assay [6] (setting [8]), 97.7%; in assay [6] (setting [9]) it was 96.9%; in assay [6] (setting [10]), 98.4%. Further, the figures for the remaining activity at 10 µM in assay [7] (setting [8]), in assay [7] (setting [9]) and in assay [7] (setting [10]) were 70%, 68.1% and 71.8%, respectively.
